What was measured:
[1] = tested on: Human immunodeficiency virus 1; assay: Antiviral activity against HIV1 in HEK293T cells; assay type: functional, organism-based; details: Human immunodeficiency virus 1, HEK-293T
HEK293 = assay: Cytotoxicity against HEK293T cells; assay type: functional; details: Homo sapiens
[2] = tested on: Human immunodeficiency virus 1; assay: Antiviral activity against HIV1 L100I mutant; assay type: functional, organism-based
[3] = tested on: Human immunodeficiency virus 1; assay: Antiviral activity against HIV1 K103N mutant; assay type: functional, organism-based
[4] = tested on: Human immunodeficiency virus 1; assay: Antiviral activity against HIV1 V106A mutant; assay type: functional, organism-based
[5] = tested on: Human immunodeficiency virus 1; assay: Antiviral activity against HIV1 I135T mutant; assay type: functional, organism-based
[6] = tested on: Human immunodeficiency virus 1; assay: Antiviral activity against HIV1 I135V mutant; assay type: functional, organism-based
[7] = tested on: Human immunodeficiency virus 1; assay: Antiviral activity against HIV1 E138K mutant; assay type: functional, organism-based
[8] = tested on: Human immunodeficiency virus 1; assay: Antiviral activity against HIV1 V179E mutant; assay type: functional, organism-based
[9] = tested on: Human immunodeficiency virus 1; assay: Antiviral activity against HIV1 Y181C mutant; assay type: functional, organism-based
[10] = tested on: Human immunodeficiency virus 1; assay: Antiviral activity against HIV1 Y188L mutant; assay type: functional, organism-based
[11] = tested on: Human immunodeficiency virus 1; assay: Antiviral activity against HIV1 F227C mutant; assay type: functional, organism-based
[12] = tested on: Human immunodeficiency virus 1; assay: Antiviral activity against HIV1 F227L mutant; assay type: functional, organism-based

O=C1Nc2ccc(Cl)cc2[C@@]12C[C@@H]2c1ccncc1
EC50 [1]: > 10000 nM
CC50 (HEK293): > 10000 nM

O=C1Nc2ccc(Cl)cc2[C@@]12C[C@@H]2c1cccn1S(=O)(=O)c1ccccc1
EC50 [1]: 6770 nM
CC50 (HEK293): > 10000 nM

O=C1Nc2ccc(Cl)cc2[C@@]12C[C@@H]2c1ccccc1
EC50 [1]: 244 nM
CC50 (HEK293): > 10000 nM

C=Cc1cccc([C@H]2C[C@]23C(=O)Nc2ccc(Cl)cc23)n1
EC50 [1]: 5 nM
EC50 [2]: 178 nM
EC50 [3]: 11100 nM
EC50 [4]: 149 nM
EC50 [5]: 16 nM
EC50 [6]: < 3 nM
EC50 [7]: 20 nM
EC50 [8]: 88 nM
EC50 [9]: 85 nM
EC50 [10]: 22600 nM
EC50 [11]: 578 nM
CC50 (HEK293): > 10000 nM
EC50 [12]: 88 nM

CSc1nc([C@H]2C[C@]23C(=O)Nc2ccc(Cl)cc23)ccc1C#N
EC50 [1]: 436 nM
CC50 (HEK293): > 10000 nM

O=C1Nc2ccc(Cl)cc2[C@@]12C[C@@H]2c1ccc2c(O)cccc2n1
EC50 [1]: 587 nM
CC50 (HEK293): > 10000 nM

O=C1Nc2ccc(Cl)cc2[C@@]12C[C@@H]2c1ccc2ccccc2n1
EC50 [1]: 10 nM
CC50 (HEK293): > 10000 nM

C=Cc1cccc([C@H]2C(C)(C)[C@]23C(=O)Nc2ccc(Cl)cc23)n1
EC50 [1]: 8 nM
EC50 [2]: 228 nM
EC50 [3]: 696 nM
EC50 [4]: 41 nM
EC50 [5]: 37 nM
EC50 [6]: 29 nM
EC50 [7]: 26 nM
EC50 [8]: 10 nM
EC50 [9]: 120 nM
EC50 [10]: 1070 nM
EC50 [11]: 87 nM
CC50 (HEK293): > 10000 nM
EC50 [12]: 14 nM

Cn1nnc([C@H]2C[C@]23C(=O)Nc2ccc(Cl)cc23)n1
EC50 [1]: 55 nM
CC50 (HEK293): > 10000 nM

Cc1ccc([C@H]2C[C@]23C(=O)Nc2ccc(Cl)cc23)o1
EC50 [1]: 73 nM
CC50 (HEK293): > 10000 nM

O=C1Nc2ccc(Cl)cc2[C@@]12C[C@@H]2c1ccco1
EC50 [1]: 200 nM
CC50 (HEK293): > 10000 nM

CCc1ccc([C@H]2C[C@]23C(=O)Nc2ccc(Cl)cc23)o1
EC50 [1]: 216 nM
CC50 (HEK293): > 10000 nM

O=C1Nc2ccc(Cl)cc2[C@@]12C[C@@H]2c1cccc(-c2ccccc2)n1
EC50 [1]: 138 nM
CC50 (HEK293): > 10000 nM

O=C1Nc2ccc(Cl)cc2[C@@]12C[C@@H]2c1cc(Br)cs1
EC50 [1]: 1270 nM
CC50 (HEK293): > 10000 nM

O=C1Nc2ccc(Cl)cc2[C@@]12C[C@@H]2c1cccc(Br)n1
EC50 [1]: 23 nM
EC50 [2]: 277 nM
EC50 [3]: 1930 nM
EC50 [4]: 166 nM
EC50 [5]: 46 nM
EC50 [6]: 14 nM
EC50 [7]: 32 nM
EC50 [8]: 48 nM
EC50 [9]: 134 nM
EC50 [10]: 6520 nM
EC50 [11]: 145 nM
CC50 (HEK293): > 10000 nM
EC50 [12]: 48 nM

O=C1Nc2ccc(Cl)cc2[C@@]12C[C@@H]2c1cc([N+](=O)[O-])cs1
EC50 [1]: > 10000 nM
CC50 (HEK293): > 10000 nM

CC1(C)[C@H](c2ccc3ccccc3n2)[C@@]12C(=O)Nc1ccc(Cl)cc12
EC50 [1]: 10 nM
EC50 [2]: 58 nM
EC50 [3]: 2350 nM
EC50 [4]: 102 nM
EC50 [5]: 55 nM
EC50 [6]: 47 nM
EC50 [7]: 71 nM
EC50 [8]: 483 nM
EC50 [9]: 717 nM
EC50 [10]: > 10000 nM
EC50 [11]: 2080 nM
CC50 (HEK293): > 10000 nM
EC50 [12]: 381 nM

O=C1Nc2ccc(Cl)cc2[C@@]12C[C@@H]2c1cccc[n+]1[O-]
EC50 [1]: > 10000 nM
CC50 (HEK293): > 10000 nM

CC#Cc1cccc([C@H]2C[C@]23C(=O)Nc2ccc(Cl)cc23)n1
EC50 [1]: 648 nM
CC50 (HEK293): > 10000 nM

O=C1Nc2ccc(Cl)cc2[C@@]12C[C@@H]2c1ccccc1Br
EC50 [1]: > 10000 nM
CC50 (HEK293): > 10000 nM

O=C1Nc2ccc(Cl)cc2[C@@]12C[C@@H]2c1cccc(-c2ccco2)n1
EC50 [1]: 18 nM
EC50 [2]: 2090 nM
EC50 [3]: 14300 nM
EC50 [4]: 2520 nM
EC50 [5]: 76 nM
EC50 [6]: 55 nM
EC50 [7]: 28 nM
EC50 [8]: 101 nM
EC50 [9]: 265 nM
EC50 [10]: 23100 nM
EC50 [11]: 658 nM
CC50 (HEK293): 7950 nM
EC50 [12]: 2350 nM

O=C1Nc2ccc(Cl)cc2[C@@]12C[C@@H]2c1ccc(-c2cccc(C(F)(F)F)c2)o1
EC50 [1]: 5550 nM
CC50 (HEK293): > 10000 nM

O=C1Nc2ccc(Cl)cc2[C@@]12C[C@@H]2c1nn[nH]n1
EC50 [1]: > 10000 nM
CC50 (HEK293): 7610 nM

Cn1cccc1-c1cccc([C@H]2C[C@]23C(=O)Nc2ccc(Cl)cc23)n1
EC50 [1]: 557 nM
CC50 (HEK293): > 10000 nM

O=C1Nc2ccc(Cl)cc2[C@@]12C[C@@H]2c1cc2ccccc2s1
EC50 [1]: 4970 nM
CC50 (HEK293): > 10000 nM

O=C1Nc2ccc(Cl)cc2[C@@]12C[C@@H]2c1ccc(Br)cn1
EC50 [1]: 23 nM
CC50 (HEK293): > 10000 nM

CC(=O)/C=C/c1cccc([C@H]2C[C@]23C(=O)Nc2ccc(Cl)cc23)n1
EC50 [1]: 1810 nM
CC50 (HEK293): 6130 nM

Cc1ccsc1[C@H]1C[C@]12C(=O)Nc1ccc(Cl)cc12
EC50 [1]: 844 nM
CC50 (HEK293): > 10000 nM

O=C1Nc2ccc(Cl)cc2[C@@]12C[C@@H]2c1ccc(F)cc1
EC50 [1]: > 10000 nM
CC50 (HEK293): > 10000 nM

COc1c(C)cnc([C@H]2C[C@]23C(=O)Nc2ccc(Cl)cc23)c1C
EC50 [1]: 463 nM
CC50 (HEK293): > 10000 nM

CC1(C)[C@H](c2cccc(Br)n2)[C@@]12C(=O)Nc1ccc(Cl)cc12
EC50 [1]: 28 nM
CC50 (HEK293): 5240 nM

O=C1Nc2ccc(Cl)cc2[C@@]12C[C@@H]2c1cccc(-c2ccccn2)n1
EC50 [1]: 504 nM
CC50 (HEK293): > 10000 nM

Cn1ccnc1[C@H]1C[C@]12C(=O)Nc1ccc(Cl)cc12
EC50 [1]: > 10000 nM
CC50 (HEK293): > 10000 nM

Cc1cnc([C@H]2C[C@]23C(=O)Nc2ccc(Cl)cc23)c(C)c1[N+](=O)[O-]
EC50 [1]: 180 nM
CC50 (HEK293): > 10000 nM

O=C1Nc2ccc(Cl)cc2[C@@]12C[C@@H]2c1cccnc1
EC50 [1]: > 10000 nM
CC50 (HEK293): > 10000 nM

O=C1Nc2ccc(Cl)cc2[C@@]12C[C@@H]2c1ccc2ccccc2c1
EC50 [1]: > 10000 nM
CC50 (HEK293): > 10000 nM

Cn1cccc1[C@H]1C[C@]12C(=O)Nc1ccc(Cl)cc12
EC50 [1]: > 10000 nM
CC50 (HEK293): > 10000 nM

O=C1Nc2ccc(Cl)cc2[C@@]12C[C@@H]2c1cc2ccccc2o1
EC50 [1]: 86 nM
CC50 (HEK293): > 10000 nM

Cc1cccc([C@H]2C[C@]23C(=O)Nc2ccc(Cl)cc23)n1
EC50 [1]: 39 nM
CC50 (HEK293): > 10000 nM

O=C1Nc2ccc(Cl)cc2[C@@]12C[C@@H]2c1nccs1
EC50 [1]: > 10000 nM
CC50 (HEK293): > 10000 nM

COC(=O)c1cc(OC)cc(OC)c1[C@H]1C[C@]12C(=O)Nc1ccc(Cl)cc12
EC50 [1]: 167 nM
CC50 (HEK293): > 10000 nM

O=C1Nc2ccc(Cl)cc2[C@@]12C[C@@H]2c1ccc(Br)o1
EC50 [1]: 245 nM
CC50 (HEK293): > 10000 nM

COc1ccc([C@H]2C[C@]23C(=O)Nc2ccc(Cl)cc23)cc1
EC50 [1]: > 10000 nM
CC50 (HEK293): > 10000 nM

CCc1ccc([C@H]2C[C@]23C(=O)Nc2ccc(Cl)cc23)s1
EC50 [1]: 160 nM
CC50 (HEK293): > 10000 nM

O=C1Nc2ccc(Cl)cc2[C@@]12C[C@@H]2c1cccc(-c2cccs2)n1
EC50 [1]: 16 nM
EC50 [2]: 100 nM
EC50 [3]: 2240 nM
EC50 [4]: 147 nM
EC50 [5]: 68 nM
EC50 [6]: 263 nM
EC50 [7]: 38 nM
EC50 [8]: 60 nM
EC50 [9]: 63 nM
EC50 [10]: 1970 nM
EC50 [11]: 313 nM
CC50 (HEK293): > 10000 nM
EC50 [12]: 365 nM

Cn1nnnc1[C@H]1C[C@]12C(=O)Nc1ccc(Cl)cc12
EC50 [1]: > 10000 nM
CC50 (HEK293): > 10000 nM

O=C1Nc2ccc(Cl)cc2[C@@](C#CC2CC2)(C(F)(F)F)O1 [EFAVIRENZ]
EC50 [5]: 1 nM
EC50 [9]: 1.1 nM
EC50 [11]: 8 nM
CC50 (HEK293): 10000 nM

Cc1ccnc2c1NC(=O)c1cccnc1N2C1CC1 [NEVIRAPINE]
EC50 [5]: 207 nM
EC50 [9]: > 10000 nM
EC50 [10]: > 10000 nM
EC50 [11]: 733 nM
CC50 (HEK293): > 10000 nM
